Structures can show the parent of a compound that is named as a salt.
How the values were obtained:
[1] = target: T1, thromboxane synthetase enzyme (Rattus norvegicus, UniProt P49430); test: Thromboxane synthetase enzyme inhibition (TXB2 formation in washed platelets, RIA); format: cell-based, spontaneously hypertensive rat; conditions: 1×10^-4 Molar, SHR platelets, 10 min at 37° C.; for inhibition at 100 µM: read-out: % Inhibition (Thromboxane Synthetase Enzyme Inhibition)
T1 construct: endogenous in cells; host or cells: washed platelets from arterial blood of male Okamoto-Aoki spontaneously hypertensive rats (animals from Taconic Farms, Germantown, N.Y.)
T1 sequence (P49430 1-533): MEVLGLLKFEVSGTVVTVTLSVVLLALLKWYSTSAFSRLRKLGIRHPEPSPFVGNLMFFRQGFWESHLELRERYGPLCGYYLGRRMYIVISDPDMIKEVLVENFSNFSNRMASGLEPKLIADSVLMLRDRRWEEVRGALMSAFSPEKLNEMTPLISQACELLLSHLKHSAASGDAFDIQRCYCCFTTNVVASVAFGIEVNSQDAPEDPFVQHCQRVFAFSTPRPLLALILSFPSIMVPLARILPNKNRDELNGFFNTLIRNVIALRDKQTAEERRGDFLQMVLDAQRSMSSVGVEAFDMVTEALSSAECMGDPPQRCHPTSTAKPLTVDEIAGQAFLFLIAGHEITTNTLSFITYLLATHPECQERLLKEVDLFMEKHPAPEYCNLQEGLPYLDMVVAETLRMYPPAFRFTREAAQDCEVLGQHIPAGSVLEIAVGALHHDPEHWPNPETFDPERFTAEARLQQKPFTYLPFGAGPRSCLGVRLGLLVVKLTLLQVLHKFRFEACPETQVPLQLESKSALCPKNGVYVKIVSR

[2] = test system: thevetin-induced arrhythmia in guinea pigs; test: Thevetin (cardiac glycoside)-induced arrhythmia in guinea pigs; format: in vivo, guinea pig; conditions: for Time (Minutes) Before Induced Arrhythmia: saline 22.91±0.5 minutes
Method: Male guinea pigs, weighing 300-500 g each, from Summit View Farms, Belvidere, N.J., were anesthetized by intraperitoneal adminstration of urethan at 1500 mg/kg. The animals were then restrained in a supine position. Electrocardiogram leads were attached to the four limbs and Lead II of the electrocardiogram was monitored.
The neck region was exposed and the jugular vein was cannulated. The test compounds were dissolved in saline and administered intravenously at the indicated doses, via a cannula which was then flushed with saline. Five minutes after the test compound was administered, thevetin dissolved in saline was administered by infusion through a cannula at a dose of 0.1 mg/kg/minute in a volume of 0.1 ml. The time until the P wave of the electrocardiogram disappeared was determined.

[3] = test system: spontaneously hypertensive rats; test: Hypotensive activity in spontaneously hypertensive rats (MABP); format: in vivo, rat (Okamoto strain); conditions: SHR, gavage, two doses of 10 mg/kg or less 24 h apart, MABP at 28 h; average baseline 160±1.5 mm Hg
Summary of the method: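 Male 16-week Okamoto spontaneously hypertensive rats dosed by gavage in 2% starch at 10 mg/kg or less with 0.9% NaCl loading 25 ml/kg; identical dose without saline given 24 hours later. Mean arterial blood pressure measured 28 hours after first dose; 1 to 4 rats per compound.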

[4] = intravenous doses as high as 20 mg/kg

Structure (SMILES)	inhibition at 100 µM [1]	Avg. MABP in mm Hg (No. of Rats) [3]	Time (Minutes) Before Induced Arrhythmia ([2]; IV dose 20 mg/kg)	Time (Minutes) Before Induced Arrhythmia ([2]; IV dose 10 mg/kg)	also measured
O=C(CNC1=Nc2cccc3cccc1c23)NCCCn1ccnc1 [2-(Benz(cd)indol-2-ylamino)-N-(3-(1H-imidazol-1-yl)propyl)acetamide]	100%				Time (Minutes) Before Induced Arrhythmia ([2]; IV dose 25 mg/kg): 33 min
CC(CCNC1=Nc2c(Cl)cc(Cl)c3cccc1c23)n1ccnc1 (stereo not drawn) [6,8-Dichloro-N-(3-(1H-imidazol-1-yl)butyl)benz(cd)indol-2-amine]		102 mm Hg	32 min		
Clc1cc(Cl)c2cccc3c2c1N=C3NCCCCCn1ccnc1 [6,8-Dichloro-N-(5-(1H-imidazol-1-yl)pentyl)benz(cd)indol-2-amine]		119 mm Hg	33.4 min		
CC(CCNC1=Nc2ccc(Br)c3cccc1c23)n1ccnc1 (stereo not drawn) [6-Bromo-N-(3-(1H-imidazol-1-yl)butyl)benz(cd)indol-2-amine]	100%	120 mm Hg			Time (Minutes) Before Induced Arrhythmia ([2]; IV dose 30 mg/kg): 34.7 min
Brc1ccc2c3c(cccc13)C(NCCCCCn1ccnc1)=N2 [6-Bromo-N-(5-(1H-imidazol-1-yl)pentyl)benz(cd)indol-2-amine]	97%	118 mm Hg	37 min		
Clc1ccc2c3c(cccc13)C(NCCCCn1ccnc1)=N2.O=C(O)/C=C/C(=O)O [6-Chloro-N-(4-(1H-imidazol-1-yl)butyl)benz(cd)indol-2-amine, fumarate]	100%	115 mm Hg		31.5 min	
C(=C\Cn1ccnc1)/CNC1=Nc2cccc3cccc1c23 [(E)-N-(4-(1H-imidazol-1-yl)-2-butenyl)benz(cd)indol-2-amine, hydriodide]	100%			34.3 min	
CC(CCNC1=Nc2ccc(S(=O)(=O)N(C)C)c3cccc1c23)n1ccnc1 (stereo not drawn) [N,N-Dimethyl-2-((3-(1H-imidazol-1-yl)butyl)amino)benz(cd)indol-6-sulfonamide]	99%			33.6 min	
CN(C)S(=O)(=O)c1ccc2c3c(cccc13)C(NCCCn1ccnc1)=N2 [N,N-Dimethyl-2-((3-(1H-imidazol-1-yl)propyl)amino)benz(cd)indol-6-sulfonamide]	100%		33.4 min		
c1cncc(CCNC2=Nc3cccc4cccc2c34)c1 [N-(2-(3-Pyridinyl)ethyl)benz(cd)indol-2-amine sesqui-fumarate]	99%	126 mm Hg	37 min		
O=C(O)/C=C/C(=O)O.c1ccc(C(CCn2ccnc2)NC2=Nc3cccc4cccc2c34)cc1 (stereo not drawn) [N-(3-(1H-imidazol-1-yl)-1-phenylpropyl)benz(cd)indol-2-amine, fumarate]	100%				Time (Minutes) Before Induced Arrhythmia ([2]; IV dose 30 mg/kg): 34 min
c1ccc(C(CNC2=Nc3cccc4cccc2c34)(Cn2ccnc2)c2ccccc2)cc1 [N-(3-(1H-imidazol-1-yl)-2,2-diphenylpropyl)benz(cd)indol-2-amine]	75%	127 mm Hg		41 min	
CC(CNC1=Nc2cccc3cccc1c23)Cn1ccnc1.O=C(O)/C=C/C(=O)O (stereo not drawn) [N-(3-(1H-imidazol-1-yl)-2-methylpropyl)benz(cd)indol-2-amine, fumarate]			34.5 min		% Inhibition (Thromboxane Synthetase Enzyme Inhibition) [1]: 100%
Cl.Cl.c1cc2c3c(cccc3c1)C(NCCCn1ccnc1)=N2 [N-(3-(1H-imidazol-1-yl)propyl)benz(cd)indol-2-amine, dihydrochloride]		87 mm Hg		48.5 min	% Inhibition (Thromboxane Synthetase Enzyme Inhibition) [1]: 85%
O=C(O)/C=C/C(=O)O.c1cc2c3c(cccc3c1)C(NCCCCn1ccnc1)=N2 [N-(4-(1H-imidazol-1-yl)butyl)benz(cd)indol-2-amine, fumarate]		106 mm Hg		31 min	% Inhibition (Thromboxane Synthetase Enzyme Inhibition) [1]: 100%
O=C(O)/C=C/C(=O)O.c1cc2c3c(cccc3c1)C(NCCCCCCCCCCn1ccnc1)=N2 [N-(10-(1H-imidazol-1-yl)decyl)benz(cd)indol-2-amine, fumarate]	65%	124 mm Hg		34.2 min	
CC(=Cc1ccc(Cc2cccnc2)cc1)C(=O)O [OKY-1581, 2-methyl-3-(4-(3-pyridinylmethyl)phenyl-2-propenoic acid, sodium salt, reference compound]					activity in thevetin-induced arrhythmia test [2, 4]: inactive; time before arrhythmia occurred [2, 4]: 24.3 ± 2.2 min

From US5081131A, “Omega-((hetero)alkyl)benz(cd)-indol-2-amines” (American Cyanamid Company, priority 1988, dated 1992)
